In paper PMC10454396 (International Journal of Molecular Sciences, 2023):
≈ marks a conversion by molar mass, not a printed value. Like-named read-outs stand apart in the source and are kept apart here.

Assays:
[1] = tested on: Staphylococcus aureus Newman WT; assay: MIC, broth microdilution, S. aureus Newman wild type; assay type: cell-based
Method: (§1) Cefazolin was obtained from Acros Organics. Ciprofloxacin hydrochloride, linezolid and vancomycin hydrochloride were obtained from Sigma-Aldrich (St. Louis, MO, USA). Tetracycline hydrochloride was obtained from Alfa Aesar. Sorangicin A was provided by HZI, Braunschweig. Stock solutions were prepared in Milli-Q water or dimethyl sulfoxide (DMSO, Sigma-Aldrich). Minimum inhibitory concentrations (MICs) were determined in cation-adjusted Mueller-Hinton broth (MHB2) using the broth microdilution method as recommended by the Clinical and Laboratory Standards Institute (CLSI). The MIC was defined as the lowest concentration of the antibiotic causing complete inhibition of visible growth of the microorganism (CLSI, 2017).
(§2) 1. In vitro characterization of mCherry expressing Staphylococcus aureus Newman
(§3) 1.1 Minimum inhibitory concentration
(§4) Table S1. Antibiotic susceptibility profile of Staphylococcus aureus Newman. WT: wild type. […]

[2] = tested on: Staphylococcus aureus Newman mCherry; assay: MIC, broth microdilution, mCherry-expressing S. aureus Newman; assay type: cell-based
Method: as §1, §2, §3, §4

[3] = tested on: mCherry-expressing S. aureus Newman; assay: Zebrafish embryo model of S. aureus yolk infection, antibiotic treatment efficacy; assay type: in vivo, Staphylococcus aureus
Method: With the aim to study the in vivo efficacy of drugs, 30 hpf zebrafish embryos were infected with 50 CFU of mCherry-expressing S. aureus Newman. Embryos were then left to recover from injection for two hours and subsequently treated with various reference antibiotics. Antibiotic treatment was performed via bath water immersion as well as via microinjection into the yolk (local treatment) and the caudal vein (systemic treatment) to study whether differences in in vivo activity exist between the three administration routes. Survival was assessed daily until 120 hpf. Additionally, the infection was visualized and quantified by means of fluorescence microscopy at 24 h post treatment (hpt). At the end of every experiment, living embryos (and dead embryos, if possible) were homogenized to determine the remaining bacterial count. Five approved antibiotics from different classes were assessed in vivo. The chosen drugs ought to differ in physicochemical properties, such as molecular weight and polarity, in order to detect a pattern between successful administration routes and the physicochemical properties of the drug. Prior to efficacy assessment, drug-mediated toxicity in zebrafish embryos was investigated using the same administration routes (Figure S3). For microinjection, a fixed dose of 20 to 30 mg/kg was used for each antibiotic. The concentration for bath water immersion was based on the minimum inhibitory concentration (MIC) and the maximum tolerated concentration (MTC) of the drug, whereby it is generally recommended to use 50- to 100-fold the antibacterial MIC to see a positive effect.
Pulled glass capillaries for microinjection (Table S2) were prepared using a micropipette puller (P-1000, Sutter Instrument). Dechorionated and anaesthetized embryos were infected with 50 colony-forming units (CFU) of mCherry-expressing S. aureus Newman by microinjection into the yolk sac at 30 hpf. In order to confirm bacterial numbers, an equal volume of bacterial cells was ejected onto Tryptic Soy Agar (TSA) supplemented with 10 µg/mL chloramphenicol before and after the injection. Antibiotic treatment was performed two hours post infection (hpi) via three different administration routes, namely bath water immersion and microinjection into the yolk sac as well as the caudal vein (CV). The infection procedure and treatment of infected embryos are described in details in the supplementary materials (Table S3).
Embryos were transferred individually to microcentrifuge tubes and washed at least three times with sterile PBS. 200 µL of sterile PBS were added and embryos were mechanically homogenized using a micropestle (Carl Roth, Karlsruhe, Germany). 800 µL of sterile PBS were added to reach a final volume of 1 mL. The homogenates were diluted and plated on tryptic soy agar (TSA). CFU counts were determined after 24 h of incubation at 37 °C.
Embryos were placed in a black 96-well plate (Falcon; Thermo Fisher, Dreieich, Germany) and cryo-anaesthetized by submersion into ice water. Images for quantitative fluorescence analysis were acquired using the following equipment: a fluorescence stereo microscope (M205 FA, Leica Microsystems, Wetzlar, Germany) in combination with a fluorescence illuminator (X-Cite, 200DC, Excelitas Technologies, Waltham, MA, USA) and a microscope camera (DFC7000 T, Leica Microsystems). Quantification of fluorescence was performed using Fiji ImageJ version 2.1.0. Fluorescent Integrated Density (FID) was determined by counting the number of pixels with fluorescence intensity greater than the threshold (10) and multiplying the count with its mean intensity. For confocal imaging, embryos were anaesthetized through immersion in tricaine (945 µM, Sigma-Aldrich) and immobilized in 1.2% low-melting agarose in a flat-bottom 96-well plate. Confocal images and time-lapse series were acquired using the Celldiscoverer 7 with LSM 900 (Zeiss) together with the 5×/0.35 Plan-APOCHROMAT objective.
2. […]

zebrafish embryos = assay: Toxicity of antimicrobials on zebrafish embryos; assay type: in vivo, Danio rerio; conditions: bath water immersion 50x MIC, no bacteria recovered from dead embryos
Method: Toxicity of antibiotics was assessed by aquatic exposure and microinjection. For evaluation of the maximum tolerated concentration (MTC) by aquatic exposure, embryos were dechorionated at 30 hpf and placed in a flat-bottom 96-well plate (Sarstedt) with one embryo per well. Excess medium was removed and 150 µL of compound dilutions (in 0.3× Danieau’s, maximum of 1% DMSO) were added. For each antibiotic, a range of concentrations was investigated. Ten embryos were used per concentration and ten additional embryos incubated in fish medium without any antibiotic served as negative control. Microinjection of antibiotics into the caudal vein (CV) and the yolk sac was performed as described earlier. PBS-injected embryos served as negative control. Exposed embryos were maintained at 28 °C throughout the whole experiment. Embryos were monitored daily under a stereo microscope (Stemi 508, Zeiss) in order to record survival as well as anomalies, pigmentation, heartbeat and locomotor responses. An embryo was considered dead when no heart beat could be observed.

[4] = Staphylococcus aureus, S. aureus Newman WT, MHB2 broth microdilution, read-out: MIC
[5] = bath water immersion 50-100x MIC
[6] = caudal vein microinjection 20-30 mg/kg, 2 hpi
[7] = yolk microinjection 20-30 mg/kg, 2 hpi
[8] = S. aureus Newman WT, MHB2 broth microdilution
[9] = S. aureus Newman mCherry, MHB2 broth microdilution

Molecule	MIC [1, 4]	bacterial fluorescence (FID) at 24 hpt ([3]; bath water immersion)	effect on survival of infected embryos [3, 5]	bacterial fluorescence (FID) at 24 hpt ([3]; caudal vein microinjection)	effect on survival of infected embryos [3, 6]	bacterial fluorescence (FID) at 24 hpt ([3]; yolk microinjection)	effect on survival of infected embryos [3, 7]	also measured
CC1(C)S[C@@H]2[C@H](NC(=O)[C@H](N)c3ccccc3)C(=O)N2[C@H]1C(=O)O [ampicillin]	0.125 µg/mL (≈ 0.358 µM)							MIC ([2]; Staphylococcus aureus, NEWMAN): 0.5 µg/mL (≈ 1.43 µM)
Cc1nnc(SCC2=C(C(=O)O)N3C(=O)[C@@H](NC(=O)Cn4cnnn4)[C@H]3SC2)s1 [cefazolin]		FID values equal to the positive control	did not show any effect	No fluorescence was observed	exhibit treatment efficacy	No fluorescence was observed	exhibit treatment efficacy	bacteria recovered (CFU plating) at 120 hpf ([3]; caudal vein microinjection): no colonies were recovered; bacteria recovered (CFU plating) at 120 hpf ([3]; yolk microinjection): no colonies were recovered
O=C(N[C@H](CO)[C@H](O)c1ccc([N+](=O)[O-])cc1)C(Cl)Cl [chloramphenicol]	8 µg/mL (≈ 24.8 µM)							MIC ([2]; Staphylococcus aureus, NEWMAN): 64 µg/mL (≈ 198 µM)
O=C(O)c1cn(C2CC2)c2cc(N3CCNCC3)c(F)cc2c1=O [ciprofloxacin]	0.25 µg/mL (≈ 0.754 µM)	a decrease in FID values	slightly prolong survival	No fluorescence was observed	exhibit treatment efficacy	No fluorescence was observed	exhibit treatment efficacy	embryos died due to infection ([3]; bath water immersion, 50 CFU yolk infection): more than 80%; bacteria recovered (CFU plating) at 120 hpf ([3]; caudal vein microinjection): no colonies were recovered; bacteria recovered (CFU plating) at 120 hpf ([3]; yolk microinjection): no colonies were recovered
CC[C@H]1OC(=O)[C@H](C)[C@@H](O[C@H]2C[C@@](C)(OC)[C@@H](O)[C@H](C)O2)[C@H](C)[C@@H](O[C@@H]2O[C@H](C)C[C@H](N(C)C)[C@H]2O)[C@](C)(OC)C[C@@H](C)C(=O)[C@H](C)[C@@H](O)[C@]1(C)O [clarithromycin]	0.25 µg/mL (≈ 0.334 µM)							
CCCCCCCCCC(=O)N[C@@H](Cc1c[nH]c2ccccc12)C(=O)N[C@H](CC(N)=O)C(=O)N[C@@H](CC(=O)O)C(=O)N[C@@H]1C(=O)NCC(=O)N[C@@H](CCCN)C(=O)N[C@@H](CC(=O)O)C(=O)N[C@H](C)C(=O)N[C@@H](CC(=O)O)C(=O)NCC(=O)N[C@H](CO)C(=O)N[C@@H]([C@H](C)CC(=O)O)C(=O)N[C@@H](CC(=O)c2ccccc2N)C(=O)O[C@@H]1C [daptomycin]	2 µg/mL (≈ 1.23 µM)							
CC[C@H]1OC(=O)[C@H](C)[C@@H](O[C@H]2C[C@@](C)(OC)[C@@H](O)[C@H](C)O2)[C@H](C)[C@@H](O[C@@H]2O[C@H](C)C[C@H](N(C)C)[C@H]2O)[C@](C)(O)C[C@@H](C)C(=O)[C@H](C)[C@@H](O)[C@]1(C)O [erythromycin]	0.25 µg/mL (≈ 0.341 µM)							
CNC(C)C1CCC(N)C(OC2C(N)CC(N)C(OC3OCC(C)(O)C(NC)C3O)C2O)O1 (centres unmarked) [gentamicin]	0.5 µg/mL (≈ 1.05 µM)							
NC[C@H]1O[C@H](O[C@H]2[C@H](O)[C@@H](O[C@H]3O[C@H](CO)[C@@H](O)[C@H](N)[C@H]3O)[C@H](N)C[C@@H]2N)[C@H](O)[C@@H](O)[C@@H]1O [kanamycin]								MIC [1, 8]: 4 µg/mL (≈ 8.26 µM); MIC [2, 9]: 4 µg/mL (≈ 8.26 µM)
CC(=O)NC[C@H]1CN(c2ccc(N3CCOCC3)c(F)c2)C(=O)O1 [linezolid]	2 µg/mL (≈ 5.93 µM)	No fluorescence was recorded	significantly (p < 0.0001) prolonged the survival	No fluorescence was recorded	significantly (p < 0.0001) prolonged the survival	No fluorescence was recorded	significantly (p < 0.0001) prolonged the survival	recovery from infection (fluorescence microscopy and CFU plating) ([3]; bath water immersion 50x MIC): full recovery from infection; survival ([3]; bath water immersion, treatment 2 hpi, 50 CFU yolk infection, until 120 hpf): 90%; mortality rate ([3]; yolk and caudal vein injection 2 hpi, 50 CFU yolk infection): greater than 75%; bacterial numbers ([3]; yolk and caudal vein injection, embryos with lethal infection): exceeding 10^5 CFU/embryo; cause of death of embryos in immersion group (zebrafish embryos): potential toxic effect
CN(C)[C@@H]1C(O)=C(C(N)=O)C(=O)[C@@]2(O)C(O)=C3C(=O)c4c(O)cccc4[C@@](C)(O)[C@H]3C[C@@H]12 [tetracycline]	0.25 µg/mL (≈ 0.563 µM)	FID values equal to the positive control	did not show any effect	No fluorescence was observed	exhibit treatment efficacy	No fluorescence was observed	exhibit treatment efficacy	bacteria recovered (CFU plating) at 120 hpf ([3]; caudal vein microinjection): no colonies were recovered; bacteria recovered (CFU plating) at 120 hpf ([3]; yolk microinjection): no colonies were recovered
NC[C@H]1O[C@H](O[C@H]2[C@H](O)[C@@H](O[C@H]3O[C@H](CO)[C@@H](O)[C@H](N)[C@H]3O)[C@H](N)C[C@@H]2N)[C@H](N)C[C@@H]1O [tobramycin]	0.5 µg/mL (≈ 1.07 µM)							
CN[C@H](CC(C)C)C(=O)N[C@H]1C(=O)N[C@@H](CC(N)=O)C(=O)N[C@H]2C(=O)N[C@H]3C(=O)N[C@H](C(=O)N[C@H](C(=O)O)c4cc(O)cc(O)c4-c4cc3ccc4O)[C@H](O)c3ccc(c(Cl)c3)Oc3cc2cc(c3O[C@@H]2O[C@H](CO)[C@@H](O)[C@H](O)[C@H]2O[C@H]2C[C@](C)(N)[C@H](O)[C@H](C)O2)Oc2ccc(cc2Cl)[C@H]1O [vancomycin]		no reduction in bacterial fluorescence	No increased survival	no reduction in bacterial fluorescence	No increased survival	no development of fluorescence	prevented embryo death	MIC ([1]; Staphylococcus aureus, NEWMAN): 2 µg/mL (≈ 1.38 µM); MIC ([2]; Staphylococcus aureus, NEWMAN): 2 µg/mL (≈ 1.38 µM); survival ([3]; yolk microinjection (local treatment) 2 hpi, 50 CFU yolk infection): 90%; colonies recovered at the end of the experiment ([3]; yolk-treated embryos): 0–2500 CFU
teicoplanin								MIC [1, 8]: 1 µg/mL; MIC [2, 9]: 1 µg/mL
